Data set [1] has as its system classical pathway complement activation. Briefly: Classical pathway (CP) complement activation ELISA in normal human serum. The class given is biochemical. As to conditions: for pIC50: CP ELISA. As for the experimental part:
The inhibitory activity of selected peptides in preventing pathway-specific complement activation was evaluated using ELISA as previously described. All assays used normal human serum (NHS), pooled from five unrelated, anonymized healthy donors, obtained with informed consent according to the local ethics committee, and following the guidelines of the Declaration of Helsinki (Blutspendezentrum Basel, Switzerland). To assess classical pathway activity, flat-bottom MaxiSorp 96-well plates (Thermo Fisher) were coated overnight at room temperature with 33 μg/mL IgM (Sigma) in a 0.1 M sodium carbonate buffer. Plates were washed 5 times with phosphate-buffered saline (Dubleccòs, Bioconcept) supplemented with 0.05% Tween-20 (PBS-T). Serial dilutions of peptides were prepared in 1% (v/v) NHS using HBBT++ assay buffer (10 mM HEPES, 150 mM NaCl, pH 7.4, 0.5% BSA, 0.15 mM CaCl2, 0.5 mM MgCl2, 0.1% Tween-20), with samples diluted in 1% (v/v) NHS. Negative controls included each inhibitor in assay buffer alone, assay buffer only, and 1% (v/v) NHS with 10 mM EDTA. HBBT++ with 1% (v/v) pooled NHS served as the 100%-control. After incubating for 1 h at 37 °C and shaking at 700 rpm, plates were washed 5 times with PBS-T. Next, 100 μL of biotinylated monoclonal mouse antihuman TCC antibody (1:1000, Hycult, clone: aE11) to detect terminal complement complexes was added to each well, followed by 1 h incubation at room temperature while shaking. After another 5 washes with PBS-T, 100 μL of HRP-conjugated NeutrAvidin (1:10,000, Invitrogen) was added to each well and incubated for 20 min at room temperature while shaking. Plates were washed 5 more times with PBS-T before adding 100 μL of 1-Step Turbo TMB-ELISA solution (Thermo Scientific) to each well. The reaction was allowed to develop until a light blue color appeared, and then stopped with 100 μL of 2 M sulfuric acid. Colorimetric detection was performed at 450 nm by using a plate reader (Synergy HT, Biotek). All assays were conducted in triplicate and normalized against 100% (no inhibitor, 1% (v/v) serum in buffer) and 0% (1% (v/v) serum in EDTA buffer) controls. In the cases of Cp60 and Cp40, 5% (v/v) NHS was used instead of 1% (v/v) NHS in some assays. Inhibition curves were fitted using nonlinear regression to a normalized variable slope model in Prism (v9-10, GraphPad).
A general note: ELISA stands for enzyme-linked immunosorbent assay.

Data set [2] has as its system alternative pathway complement activation. The data set can be described thus: Alternative pathway (AP) complement activation ELISA in normal human serum. The class given is biochemical. As to conditions: diluted human serum (figure legends 1%; method 10% NHS). As to the method: The inhibitory activity of selected peptides in preventing pathway-specific complement activation was evaluated using ELISA as previously described. All assays used normal human serum (NHS), pooled from five unrelated, anonymized healthy donors, obtained with informed consent according to the local ethics committee, and following the guidelines of the Declaration of Helsinki (Blutspendezentrum Basel, Switzerland).
The activity of selected peptides in preventing the activation of the alternative pathway was evaluated by analogy to the classical pathway ELISA described above, with some adjustments. Flat-bottom PolySorb 96-well plates (Thermo Fisher) were coated overnight at room temperature with 40 μg/mL lipopolysaccharide from Salmonella enteritidis (Sigma-Aldrich) in 0.1 M sodium carbonate buffer and washed 5 times with PBS-T. Serial dilutions of peptides were prepared in 10% (v/v) pooled NHS using HBBT + assay buffer (10 mM HEPES, 150 mM NaCl, pH 7.4, 0.5% BSA, 5 mM EGTA, 5 mM MgCl2, and 0.1% Tween-20), with samples diluted in 10% (v/v) NHS. Negative controls included each inhibitor in assay buffer alone, assay buffer only, and 10% (v/v) serum with 10 mM EDTA. HBBT+ with 10% (v/v) pooled NHS served as the 100%-control. Subsequent steps were performed as described above.

Data set [3] concerns the target T1, human C3b (Homo sapiens, UniProt P01024).
T1 construct: purchased Complement Technology, Tyler, TX, USA
The data set can be described thus: SPR kinetic binding to immobilized human C3b. Particulars: for k a, affinity hC3b / k d, affinity hC3b / pKd: SPR, 1:1 Langmuir fit, average of 3 independent experiments, SD in brackets; for pKd: read-out: K D, affinity hC3b. As to the method: Experiments were conducted at 25 °C in HBST buffer (10 mM HEPES, 150 mM NaCl, and 0.05% Tween-20, pH 7.4; XanTec bioanalytics). Human C3b (Complement Technology, Tyler, TX, USA) was immobilized via amine-reactive coupling. […] Individual peptide samples were injected for 120 s, followed by a 180 s dissociation phase. […] Signals from the reference cell and buffer blank injections were subtracted within each dilution series to correct for buffer effects and injection artifacts. Data were fitted to a Langmuir 1:1 binding model to calculate association (k a) and dissociation (k d) rate constants, and the equilibration constant K D is calculated based on the equation: K D = k d/k a. In the case of Cp40 derivatives and Cp60, a single-cycle approach was used for kinetic analysis by injecting 5 increasing concentrations of each compound (0.5-40 nM) consecutively without a regeneration period in between injections. Individual injections within a cycle were 120 s long with a 5 min dissociation phase between injections. […] Analog Cp40 was included in each experimental series as a reference and internal control. Signals from the reference cell and buffer blank injections were subtracted to correct for buffer effects and injection artifacts. Kinetic data were processed in BiaEvaluation (Cytiva) using single-cycle evaluation by global fitting each data set to a Langmuir 1:1 binding model. The reported kinetic parameters (Tables and ) indicate the mean values and standard deviations of three independent experiments. SPR sensorgrams are provided in the Supporting Information.
On the technique in general: SPR reads the build-up and loss of mass on a sensor chip optically.

The conditions of data set [4]: first-in-human trials, cited from earlier work.
Data set [5] addresses T1, human C3b. Briefly: SPR kinetic binding to immobilized human C3b. As to conditions: K D determined as steady state affinity, read-out: K D, affinity hC3b, steady state affinity.

Structures are written as SMILES. pIC50, pKd: −log10 of the molar value. Read-outs that look alike come from different tables or passages of the source. Where a SMILES comes first, the peptide text is derived from it. Bridges are numbered along the chain shown (N, C = ends).

T1 sequence (P01024 23-667 limits assumed): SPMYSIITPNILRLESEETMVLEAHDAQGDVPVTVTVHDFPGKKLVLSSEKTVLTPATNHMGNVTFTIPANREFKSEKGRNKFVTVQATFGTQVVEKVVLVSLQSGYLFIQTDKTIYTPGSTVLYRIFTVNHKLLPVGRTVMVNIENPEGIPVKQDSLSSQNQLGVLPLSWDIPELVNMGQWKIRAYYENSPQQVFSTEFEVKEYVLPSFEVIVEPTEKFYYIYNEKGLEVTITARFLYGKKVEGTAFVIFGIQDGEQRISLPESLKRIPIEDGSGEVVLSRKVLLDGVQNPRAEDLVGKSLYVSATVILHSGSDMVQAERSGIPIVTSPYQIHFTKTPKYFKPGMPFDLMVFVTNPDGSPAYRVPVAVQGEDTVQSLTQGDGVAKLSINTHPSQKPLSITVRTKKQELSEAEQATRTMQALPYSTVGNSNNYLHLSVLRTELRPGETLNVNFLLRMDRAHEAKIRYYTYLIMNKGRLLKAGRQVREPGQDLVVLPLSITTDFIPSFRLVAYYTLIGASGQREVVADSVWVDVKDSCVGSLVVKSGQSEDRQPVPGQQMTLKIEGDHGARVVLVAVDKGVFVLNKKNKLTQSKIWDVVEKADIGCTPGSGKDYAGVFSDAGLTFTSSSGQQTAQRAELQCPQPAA
T1 sequence (P01024 749-1663 partner limits assumed): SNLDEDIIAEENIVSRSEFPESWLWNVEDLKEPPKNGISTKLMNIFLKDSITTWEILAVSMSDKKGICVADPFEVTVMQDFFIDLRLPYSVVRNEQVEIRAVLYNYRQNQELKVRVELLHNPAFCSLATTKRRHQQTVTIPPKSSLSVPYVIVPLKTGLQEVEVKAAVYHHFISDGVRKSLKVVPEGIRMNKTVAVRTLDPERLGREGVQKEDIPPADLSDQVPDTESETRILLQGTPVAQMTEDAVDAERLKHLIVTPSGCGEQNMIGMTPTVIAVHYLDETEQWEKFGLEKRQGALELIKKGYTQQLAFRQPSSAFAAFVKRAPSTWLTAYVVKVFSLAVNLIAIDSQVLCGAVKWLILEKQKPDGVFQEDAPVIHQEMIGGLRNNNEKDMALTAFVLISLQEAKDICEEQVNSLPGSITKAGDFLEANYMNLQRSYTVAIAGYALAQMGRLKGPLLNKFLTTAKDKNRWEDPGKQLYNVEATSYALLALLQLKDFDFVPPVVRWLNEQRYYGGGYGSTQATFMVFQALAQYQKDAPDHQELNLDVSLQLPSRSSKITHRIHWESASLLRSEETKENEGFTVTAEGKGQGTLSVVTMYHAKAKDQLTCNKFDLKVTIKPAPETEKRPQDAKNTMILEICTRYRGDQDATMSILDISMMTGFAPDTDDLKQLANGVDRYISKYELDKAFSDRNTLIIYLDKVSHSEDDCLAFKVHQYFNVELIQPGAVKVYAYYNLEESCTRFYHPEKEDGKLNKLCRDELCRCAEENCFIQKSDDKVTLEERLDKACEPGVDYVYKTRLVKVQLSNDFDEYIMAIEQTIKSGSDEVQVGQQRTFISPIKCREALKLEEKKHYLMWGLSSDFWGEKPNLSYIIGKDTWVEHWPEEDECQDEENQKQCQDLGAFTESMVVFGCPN

By pIC50 is commonly meant the negative decadic logarithm of the IC50, by convention in mol/L. For the compound `CC[C@H](C)[C@H](NC(C)=O)C(=O)N[C@H]1CSSC[C@@H](C(=O)N[C@H](C(N)=O)[C@@H](C)O)NC(=O)[C@H](CCCN=C(N)N)NC(=O)[C@H](Cc2c[nH]cn2)NC(=O)[C@H](C)NC(=O)CNC(=O)[C@H](Cc2c[nH]c3ccccc23)NC(=O)[C@H](CC(=O)O)NC(=O)[C@H](CCC(N)=O)NC(=O)[C@H](Cc2c[nH]c3ccccc23)NC(=O)[C@H](C(C)C)NC1=O` [Cp01, reference compound], the pIC50 is 4.70 in data set [1] (1% diluted normal human serum) and 5.85 in data set [2].
Take `CC[C@H](C)[C@H](NC(C)=O)C(=O)N[C@H]1CSSC[C@@H](C(=O)N[C@H](C(N)=O)[C@@H](C)O)NC(=O)[C@H](CCCNC(=N)N)NC(=O)[C@H](Cc2c[nH]cn2)NC(=O)[C@H](C)NC(=O)CNC(=O)[C@H](Cc2c[nH]c3ccccc23)NC(=O)[C@H](CC(=O)O)NC(=O)[C@H](CCC(N)=O)NC(=O)[C@H](Cc2c[nH]c3ccccc23)NC(=O)[C@H]([C@@H](C)CC)NC1=O` [Cp01-Val3Ile] (Ac-ICIWQDWGAHRCT-NH2; disulfide 2-12): in data set [3] (K D ratio vs Cp01), the “fold improvement in affinity compared with Cp01” value was ~10 fold. In data set [3], the “k a, affinity hC3b” value is 8.8(0.1) 10^5 M^–1 s^–1; the “k d, affinity hC3b” value was 1.7(0.1) 10^–2 s^–1; the pKd is 7.70. The pIC50 in data set [1] (1% diluted normal human serum, listed as Cp01-V3I) is 6.37. Further, the “fold enhanced potency for inhibiting complement activation in vitro vs Cp01” value in data set [1] (IC50 ratio vs Cp01) is listed as “up to 40 fold”. This compound also had a pIC50 in data set [2] of 6.70.
As for `CC[C@H](C)[C@H](NC(=O)[C@H](N)Cc1ccc(O)cc1)C(=O)N[C@H]1CSSC[C@@H](C(=O)N(C)[C@H](C(N)=O)[C@@H](C)CC)NC(=O)[C@H](CCCNC(=N)N)NC(=O)[C@H](Cc2c[nH]cn2)NC(=O)[C@H](C)NC(=O)CN(C)C(=O)[C@H](Cc2c[nH]c3ccccc23)NC(=O)[C@H](CC(=O)O)NC(=O)[C@H](CCC(N)=O)NC(=O)[C@H](Cc2cn(C)c3ccccc23)NC(=O)[C@H](C(C)C)NC1=O` [Cp40, reference compound], the immunogenicity entry in data set [4] is reported as “no evidence of drug-related immunogenicity or increase in antidrug antibodies”. For the same compound, the safety profile entry in data set [4] (single and multiple doses via different routes) is “good safety profile”. In addition, in data set [3], the “k a, affinity hC3b” value was 17.6(0.3) 10^5 M^–1 s^–1; the “k d, affinity hC3b” value is reported as 0.1 10^–2 s^–1; the pKd was 9.15. In addition, in data set [3] (listed as Cp40 Val), the “k d, affinity hC3b” value is given as 0.1(0.0) 10^–2 s^–1. In addition, in data set [1] (5% human serum), the negative-log IC50 (pIC50) is 6.80.
Turning to `CC[C@@H](C)[C@@H]1NC(=O)[C@@H](NC(=O)[C@@H](NC(C)=O)[C@@H](C)CC)CSSC[C@@H](C(=O)N[C@H](C(N)=O)[C@@H](C)O)NC(=O)[C@H](CCCNC(=N)N)NC(=O)[C@H](Cc2c[nH]cn2)NC(=O)[C@H](C)NC(=O)CNC(=O)[C@H](Cc2c[nH]c3ccccc23)NC(=O)[C@H](CC(=O)O)NC(=O)[C@H](CCC(N)=O)NC(=O)[C@H](Cc2c[nH]c3ccccc23)NC1=O` [Cp01-Val3aIle], the pKd in data set [5] was 6.26.

The values are drawn from article PMC13181761, “New Analogs of the Compstatin Family of Clinical Complement Inhibitors with Low Picomolar Target Affinity” (Journal of Medicinal Chemistry, 2026).
